Experimental data: the supplement of paper PMC10307832

Assays:
Assay in all cases: relative viability (nuclei count vs DMSO), 5 days (fraction); higher = more cells survive
[1] = compound: CC1(COc2ccc3c(c2)ncn3-c2ccc3cccc(N4CCC(N)CC4)c3n2)COC1 [Crenolanib] + N=C(N)NC(=N)NCCc1ccccc1 [Phenformin] (partner 250 µM)
Summary of the method: (§1)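 Nuclei were stained with Hoechst during a one-step fixation (final 0.05% Triton X-100, 1% formaldehyde, 1 ug/ml Hoechst) carried out 5 days after dosing, then counted on 4× images. The cells, lung cancer lines in 1536-well plates, had been dosed by pin tool the day after seeding with one drug alone or a fixed anchor-drug dose plus five library-drug doses (not always all listed) in √10 steps. Relative viability is the nuclei count in treated wells divided by that in vehicle wells, and each value is the median of duplicate plates.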

[2] = compound: CC1(COc2ccc3c(c2)ncn3-c2ccc3cccc(N4CCC(N)CC4)c3n2)COC1 [Crenolanib] + CCNC(=O)c1noc(-c2cc(C(C)C)c(O)cc2O)c1-c1ccc(CN2CCOCC2)cc1 [Luminespib] (partner 0.01 µM)
Summary of the method: as §1

[3] = compound: O=C1NC(=O)[C@@H](c2cn3c4c(cccc24)CCC3)[C@@H]1c1c[nH]c2ccccc12 [Tivantinib] + C[C@]1(O)C[C@@H](c2nc(-c3ccc4ccc(-c5ccccc5)nc4c3)c3c(N)nccn32)C1 [Linsitinib] (partner 1 µM)
Summary of the method: as §1

[4] = compound: CC1(COc2ccc3c(c2)ncn3-c2ccc3cccc(N4CCC(N)CC4)c3n2)COC1 [Crenolanib] + Nc1ncn([C@H]2C[C@H](O)[C@@H](CO)O2)c(=O)n1 [Decitabine] (partner 2 µM)
Summary of the method: as §1

| Cell Line | relative viability ([1]; first compound 0.01 µM) | relative viability ([1]; first compound 0.03162 µM) | relative viability ([1]; first compound 0.1 µM) | relative viability ([1]; first compound 0.3162 µM) | relative viability ([1]; first compound 1 µM) | relative viability ([2]; first compound 0.01 µM) | relative viability ([2]; first compound 0.03162 µM) | relative viability ([2]; first compound 0.1 µM) | relative viability ([2]; first compound 0.3162 µM) | relative viability ([2]; first compound 1 µM) | relative viability ([3]; first compound 0.01 µM) | relative viability ([3]; first compound 0.03162 µM) | relative viability ([3]; first compound 0.1 µM) | relative viability ([3]; first compound 0.3162 µM) | relative viability ([4]; first compound 0.01 µM) | relative viability ([4]; first compound 0.03162 µM) | relative viability ([4]; first compound 0.1 µM) | relative viability ([4]; first compound 0.3162 µM) | relative viability ([4]; first compound 1 µM) |
| --- | --- | --- | --- | --- | --- | --- | --- | --- | --- | --- | --- | --- | --- | --- | --- | --- | --- | --- | --- |
| NCI-H322M | 0.794 | 0.802 | 0.755 | 0.835 | 0.803 | 0.949 | 0.88 | 0.752 | 0.769 | 0.802 | 0.94 | 0.864 | 0.938 | 0.398 | 0.863 | 0.748 | 0.663 | 0.73 | 0.71 |
| NCI-H1993 | 0.486 | 0.513 | 0.493 | 0.533 | 0.499 | 0.998 | 0.839 | 0.684 | 0.823 | 0.783 | 0.742 | 0.863 | 0.734 | 0.721 | 0.578 | 0.629 | 0.615 | 0.62 | 0.651 |
| NCI-H1944 | 0.217 | 0.222 | 0.221 | 0.202 | 0.177 | 0.729 | 0.801 | 0.759 | 0.871 | 0.655 | 1.07 | 1.06 | 1.01 | 0.583 | 0.474 | 0.441 | 0.423 | 0.468 | 0.458 |
| LXF-289 | 0.514 | 0.538 | 0.523 | 0.524 | 0.483 | 0.657 | 0.772 | 0.617 | 0.722 | 0.711 | 0.982 | 0.971 | 0.906 | 0.927 | 0.402 | 0.349 | 0.408 | 0.388 | 0.413 |
| NCI-H2405 | 0.359 | 0.394 | – | 0.284 | 0.362 | 0.786 | 0.83 | – | 0.641 | 0.594 | 1.16 | 1.02 | 0.941 | 0.739 | 0.775 | – | 0.671 | 0.781 | 0.686 |
| NCI-H2023 | 0.407 | 0.415 | 0.409 | 0.441 | 0.376 | 0.839 | 0.704 | 0.639 | 1 | 0.453 | 0.657 | 0.737 | 0.575 | 0.461 | 0.153 | 0.266 | 0.242 | 0.263 | 0.213 |
| COR-L23 | 0.444 | 0.417 | 0.47 | 0.427 | 0.397 | 0.709 | 0.679 | 0.63 | 0.848 | 0.574 | 0.914 | 0.884 | 0.862 | 0.848 | 0.326 | 0.473 | 0.431 | 0.487 | 0.413 |
| HCC-827 | 0.446 | 0.401 | 0.427 | 0.445 | 0.403 | 0.7 | 0.607 | 0.617 | 0.568 | 0.6 | 1.03 | 0.991 | 0.96 | 0.953 | 0.332 | 0.329 | 0.311 | 0.308 | 0.348 |
| NCI-H1355 | 0.506 | 0.463 | 0.445 | 0.406 | 0.381 | 0.741 | 0.777 | 0.65 | 0.721 | 0.665 | 0.726 | 0.801 | 0.725 | 0.779 | 0.374 | 0.335 | 0.303 | 0.407 | 0.328 |
